Measurements as given in ChEMBL document CHEMBL3865804, “A Gestalt approach to Gram-negative entry” (2016).
Converted amounts (≈) assume the structure as drawn.

Assays:
Format in all cases: functional
[1] = system: Streptococcus pneumoniae; assay: Antibacterial activity against Streptococcus pneumoniae CL2883 by broth microdilution technique
[2] = system: Haemophilus influenzae; assay: Antibacterial activity against Haemophilus influenzae MB5363 by broth microdilution technique
[3] = system: Escherichia coli; assay: Antibacterial activity against Escherichia coli MB2884 by broth microdilution technique
[4] = system: Klebsiella pneumoniae; assay: Antibacterial activity against Klebsiella pneumoniae MB4005 by broth microdilution technique
[5] = system: Enterococcus faecalis; assay: Antibacterial activity against Enterococcus faecalis MB5407 by broth microdilution technique
[6] = system: Staphylococcus aureus; assay: Antibacterial activity against Staphylococcus aureus MB2865 by broth microdilution technique

Row | SMILES | MIC [1] [µg/mL] | MIC [2] [µg/mL] | MIC [3] [µg/mL] | MIC [4] [µg/mL] | MIC [5] [µg/mL] | MIC [6] [µg/mL]
1 | CC[C@H]1OC(=O)[C@H](C)[C@@H](O[C@H]2C[C@@](C)(OC)[C@@H](O)[C@H](C)O2)[C@H](C)[C@@H](O[C@@H]2O[C@H](C)C[C@H](N(C)C)[C@H]2O)[C@](C)(O)C[C@@H](C)CN(C)[C@H](C)[C@@H](O)[C@]1(C)O [AZITHROMYCIN] | 0.03 (≈ 0.0401 µM) | 0.5 (≈ 0.668 µM) | 1 (≈ 1.34 µM) | 2 (≈ 2.67 µM) | 4 (≈ 5.34 µM) | 1 (≈ 1.34 µM)
2 | CC[C@H]1OC(=O)[C@H](C)[C@@H](O[C@H]2C[C@@](C)(OC)[C@@H](O)[C@H](C)O2)[C@H](C)[C@@H](O[C@@H]2O[C@H](C)C[C@H](N(C)C)[C@H]2O)[C@](C)(O)C[C@@H](C)C(=O)[C@H](C)[C@@H](O)[C@]1(C)O [ERYTHROMYCIN] | 0.02 (≈ 0.0273 µM) | 2 (≈ 2.73 µM) | 32 (≈ 43.6 µM) | 32 (≈ 43.6 µM) | 1 (≈ 1.36 µM) | 0.25 (≈ 0.341 µM)
3 | CC[C@H]1OC(=O)[C@H](C)[C@@H](O[C@H]2C[C@@](C)(OC)[C@@H](N)[C@H](C)O2)[C@H](C)[C@@H](O[C@@H]2O[C@H](C)C[C@H](N(C)C)[C@H]2O)[C@](C)(O)C[C@@H](C)N(C)C[C@H](C)[C@@H](O)[C@]1(C)O | ≤ 0.06 | 0.25 (≈ 0.334 µM) | 0.13 (≈ 0.174 µM) | 0.13 (≈ 0.174 µM) | 2 (≈ 2.67 µM) | 1 (≈ 1.34 µM)
4 | CC[C@H]1OC(=O)[C@H](C)[C@@H](O[C@H]2C[C@@](C)(OC)[C@@H](O)[C@H](C)O2)[C@H](C)[C@@H](O[C@@H]2O[C@H](C)C[C@H](N(C)C)[C@H]2O)[C@](C)(O)C[C@@H](C)N(C)C[C@H](C)[C@@H](O)[C@]1(C)O [L-701677] | 0.03 (≈ 0.0401 µM) | 1 (≈ 1.34 µM) | 1 (≈ 1.34 µM) | 1 (≈ 1.34 µM) | 2 (≈ 2.67 µM) | 0.5 (≈ 0.668 µM)
